Experimental data taken from patent US20230233584A1, “EXTENDED RELEASE 5-HT RECEPTOR AGONISTS FOR NEUROLOGICAL CONDITIONS” (Diamond Therapeutics Inc., priority 2020, published 2023).
Read-outs that look alike come from different tables or passages of the source.

How the values were obtained:
[1] = Psilocybin and psilocin plasma pharmacokinetics after s.c. psilocybin; assay type: in vivo, rats; conditions: for Cmax / concentration at 0.25 h / concentration at 0.5 h / concentration at 0.75 h / concentration at 1 h / concentration at 2 h / concentration at 4 h / concentration at 6 h / Tmax / AUC(0-inf) / AUC(0-t) / half-life / MRT inf: rat, rats; for Cmax / concentration at 0.25 h / concentration at 0.5 h / concentration at 0.75 h / concentration at 1 h / concentration at 2 h / concentration at 4 h / concentration at 6 h: plasma; for AUC(0-inf): read-out: AUC0-inf, Mean; for AUC(0-t): read-out: AUC0-tlast, Mean; for half-life: read-out: Apparent t1/2, Mean (converted); for MRT inf: read-out: MRT0-inf, Mean
Procedure: Psilocybin doses of 0.05, 0.1, 1, 10 mg/kg were used to evaluate psilocybin and psilocin PK in rats. For the doses of psilocybin that positively effect behaviors in the low performers in the PR and 5CSRTT, e.g., 0.05-0.1 mg/kg, the corresponding Cm. of psilocin was ˜7±2 ng/ml at 30 minutes for 0.05 mg/kg, and at a dose of 0.1 mg/kg, the Cm. of psilocin was determined to be ˜12±3 ng/ml at 30 minutes (FIG. 5).
Details of the plasma concentration studies are shown in Tables 1-8 (psilocybin) and 9-16 (psilocin). Values in italics are below the lower level of quantitation (BLQ, <1 ng/mL) but were included in calculations. Values in bold and underlined are considered to be outliers and were omitted from calculations. Measured dosing solution concentrations were 0.0460, 0.0967, 0.948 and 9.65 mg/mL for 0.05, 0.1, 1 and 10 […].

[2] = Minipump infusion of psilocybin over 12 days: plasma/blood exposure; assay type: in vivo, rats
Procedure: A dose of psilocybin, which is free from perceptual and behavioral side effects, was dosed in rats (N=24) continuously over a period of 12 days using an Alzet minipump implanted in rats of approximately 380-390 g body weight. The pump was primed to deliver psilocybin at 5 mg/kg/day pump concentration. The target plasma concentration was 10 ng/ml psilocin with actual plasma concentration 9.3+1.3 ng/ml over the 12 day study period.
Blood was collected from rats on days 4, 8 and 12 to measure levels of psilocybin and psilocin in Group B rats. Blood was collected via saphenous bleed at a standard timepoint which will not interfere with 5-choice testing. Psilocin blood levels were in the range of 8-10 ng/ml over days 4-12, while psilocybin blood levels were in the range of 2-5 ng/ml over days 4-12 (FIG. 7A), corresponding to 10 ng/mL psilocin. […] The present observations recorded for psilocybin/psilocin are occurring at exposure levels of psilocin ˜10 ng/ml (e.g., FIG. 5), likely resulting in a low level of CNS 5-HT2A receptor occupancy, and which is insufficient to elicit cardinal signs of 5-HT2A receptor activation such as WDS/BMC in rats (e.g., FIG. 1B).

[3] = subcutaneous, after psilocybin 0.05 mg/kg s.c.
[4] = subcutaneous, after psilocybin 0.1 mg/kg s.c.
[5] = subcutaneous, after psilocybin 1 mg/kg s.c.
[6] = subcutaneous, after psilocybin 10 mg/kg s.c.
[7] = sc, psilocin in plasma after psilocybin 0.05 mg/kg s.c.
[8] = sc, psilocin in plasma after psilocybin 0.1 mg/kg s.c.
[9] = sc, psilocin in plasma after psilocybin 1 mg/kg s.c.
[10] = sc, psilocin in plasma after psilocybin 10 mg/kg s.c.

Question: For `CN(C)CCc1c[nH]c2cccc(O)c12` [psilocin, 4-hydroxy-N,N-dimethyltryptamine], which “Plasma [psilocin]” value ([1]; Regimen 1, 0.05-0.1 mg/kg acute, increase in breakpoint under PR schedule (low performer subgroup)) is on record?
Answer: The value was ~5 to 12 ng/mL.

Question: What about the “Plasma [psilocin]” value ([1]; Regimen 2, 0.05-0.1 mg/kg acute, improvement in attention and response speed in 5-choice test (low performer subgroup)) of the same compound?
Answer: Its value is ~5 to 12 ng/mL.

Question: And the “Plasma [psilocin]” value ([1]; Regimen 3, 0.05-0.1 mg/kg acute, increase in PREM/PSV response in 10 s ITI 5-choice test (low impulsive subgroup))?
Answer: The value was ~5 to 12 ng/mL.

Question: And the “Plasma [psilocin]” value ([1]; Regimen 5, ≥0.3 mg/kg acute, induction of overt 5-HT2A behaviors of WDS/BMC)?
Answer: Its value is ≥25 ng/mL.

Question: And the Cmax ([1]; sc, 0.05 mg/kg, psilocin in plasma after psilocybin 0.05 mg/kg s.c., read-out: Cmax, Mean)?
Answer: The Cmax was 7.14 ng/mL.

Question: What about the Cmax ([1]; sc, 0.05 mg/kg, psilocybin 0.05 mg/kg, after 30 mins, read-out: Cmax psilocin) of the same compound?
Answer: The Cmax was ~6 ng/mL.

Question: What about the Cmax ([1]; sc, 0.1 mg/kg, psilocin in plasma after psilocybin 0.1 mg/kg s.c., read-out: Cmax, Mean) of the same compound?
Answer: The Cmax was 11.7 ng/mL.

Question: What about the Cmax ([1]; sc, 1 mg/kg, psilocin in plasma after psilocybin 1 mg/kg s.c., read-out: Cmax, Mean) of the same compound?
Answer: Its Cmax is 83.3 ng/mL.

Question: And the Cmax ([1]; sc, 10 mg/kg, psilocin in plasma after psilocybin 10 mg/kg s.c., read-out: Cmax, Mean)?
Answer: The Cmax was 1110 ng/mL.

Question: And the Cmax ([1]; subcutaneous, 0.05 mg/kg, psilocybin 0.05 mg/kg, after 30 mins, read-out: Cmax psilocin)?
Answer: Its Cmax is ~7 ng/mL.

Question: What about the Cmax ([1]; subcutaneous, 0.1 mg/kg, psilocybin 0.1 mg/kg, after 30 mins, read-out: Cmax psilocin) of the same compound?
Answer: Its Cmax is ~12 ng/mL.

Question: And the Cmax ([1]; subcutaneous, 1 mg/kg, psilocybin 1 mg/kg, after 30 mins, read-out: Cmax psilocin)?
Answer: The Cmax was ~83 ng/mL.

Question: What about the Cmax ([1]; subcutaneous, 10 mg/kg, psilocybin 10 mg/kg, after 30 mins, read-out: Cmax psilocin) of the same compound?
Answer: The Cmax was ~1110 ng/mL.

Question: What about the concentration at 0.25 h [1, 3] of the same compound?
Answer: Its concentration at 0.25 h is 3.76 ng/mL.

Question: And the concentration at 0.5 h [1, 3]?
Answer: The concentration at 0.5 h was 5.68 ng/mL.

Question: What about the concentration at 0.75 h [1, 3] of the same compound?
Answer: Its concentration at 0.75 h is 3.11 ng/mL.

Question: And the concentration at 1 h [1, 3]?
Answer: Its concentration at 1 h is 5.91 ng/mL.

Question: What about the concentration at 2 h [1, 3] of the same compound?
Answer: Its concentration at 2 h is 2.23 ng/mL.

Question: What about the concentration at 4 h [1, 3] of the same compound?
Answer: The concentration at 4 h was 0.49 ng/mL.

Question: And the concentration at 6 h [1, 3]?
Answer: Its concentration at 6 h is 0.136 ng/mL.

Question: And the concentration at 0.25 h [1, 4]?
Answer: The concentration at 0.25 h was 9.35 ng/mL.

Question: And the concentration at 0.5 h [1, 4]?
Answer: Its concentration at 0.5 h is 12.3 ng/mL.

Question: And the concentration at 0.75 h [1, 4]?
Answer: Its concentration at 0.75 h is 7.73 ng/mL.

Question: What about the concentration at 1 h [1, 4] of the same compound?
Answer: Its concentration at 1 h is 5.7 ng/mL.

Question: And the concentration at 2 h [1, 4]?
Answer: Its concentration at 2 h is 2.78 ng/mL.

Question: What about the concentration at 4 h [1, 4] of the same compound?
Answer: The concentration at 4 h was 0.535 ng/mL.

Question: What about the concentration at 6 h [1, 4] of the same compound?
Answer: The concentration at 6 h was 0.215 ng/mL.

Question: And the concentration at 0.25 h [1, 5]?
Answer: Its concentration at 0.25 h is 74.5 ng/mL.

Question: And the concentration at 0.5 h [1, 5]?
Answer: Its concentration at 0.5 h is 76.6 ng/mL.

Question: What about the concentration at 0.75 h [1, 5] of the same compound?
Answer: Its concentration at 0.75 h is 70.3 ng/mL.

Question: And the concentration at 1 h [1, 5]?
Answer: The concentration at 1 h was 69.9 ng/mL.

Question: What about the concentration at 2 h [1, 5] of the same compound?
Answer: Its concentration at 2 h is 29.7 ng/mL.

Question: And the concentration at 4 h [1, 5]?
Answer: Its concentration at 4 h is 5.5 ng/mL.

Question: What about the concentration at 6 h [1, 5] of the same compound?
Answer: Its concentration at 6 h is 1.34 ng/mL.

Question: And the concentration at 0.25 h [1, 6]?
Answer: The concentration at 0.25 h was 704 ng/mL.

Question: And the concentration at 0.5 h [1, 6]?
Answer: The concentration at 0.5 h was 898 ng/mL.

Question: What about the concentration at 0.75 h [1, 6] of the same compound?
Answer: Its concentration at 0.75 h is 1080 ng/mL.

Question: And the concentration at 1 h [1, 6]?
Answer: The concentration at 1 h was 1070 ng/mL.

Question: What about the concentration at 2 h [1, 6] of the same compound?
Answer: The concentration at 2 h was 713 ng/mL.

Question: What about the concentration at 4 h [1, 6] of the same compound?
Answer: The concentration at 4 h was 269 ng/mL.

Question: What about the concentration at 6 h [1, 6] of the same compound?
Answer: Its concentration at 6 h is 132 ng/mL.

Question: And the Tmax [1, 7]?
Answer: The Tmax was 36 min.

Question: And the AUC(0-inf) [1, 7]?
Answer: Its AUC(0-inf) is 10.3 ng·h/mL.

Question: And the AUC(0-t) [1, 7]?
Answer: Its AUC(0-t) is 10.1 ng·h/mL.

Question: What about the half-life [1, 7] of the same compound?
Answer: The half-life was 60 min.

Question: And the MRT inf [1, 7]?
Answer: Its MRT inf is 104 min.

Question: What about the Tmax [1, 8] of the same compound?
Answer: Its Tmax is 32.2 min.

Question: What about the AUC(0-inf) [1, 8] of the same compound?
Answer: Its AUC(0-inf) is 15.7 ng·h/mL.

Question: And the AUC(0-t) [1, 8]?
Answer: The AUC(0-t) was 12.5 ng·h/mL.

Question: What about the half-life [1, 8] of the same compound?
Answer: The half-life was 55.1 min.

Question: And the MRT inf [1, 8]?
Answer: Its MRT inf is 85.2 min.

Question: And the Tmax [1, 9]?
Answer: Its Tmax is 34.3 min.

Question: And the AUC(0-inf) [1, 9]?
Answer: Its AUC(0-inf) is 143 ng·h/mL.

Question: What about the AUC(0-t) [1, 9] of the same compound?
Answer: Its AUC(0-t) is 117 ng·h/mL.

Question: And the half-life [1, 9]?
Answer: Its half-life is 52.7 min.

Question: What about the MRT inf [1, 9] of the same compound?
Answer: The MRT inf was 91.8 min.

Question: What about the Tmax [1, 10] of the same compound?
Answer: The Tmax was 42.8 min.

Question: And the AUC(0-inf) [1, 10]?
Answer: The AUC(0-inf) was 3380 ng·h/mL.

Question: What about the AUC(0-t) [1, 10] of the same compound?
Answer: Its AUC(0-t) is 2280 ng·h/mL.

Question: What about the half-life [1, 10] of the same compound?
Answer: The half-life was 99 min.

Question: What about the MRT inf [1, 10] of the same compound?
Answer: The MRT inf was 160 min.

Question: And the “Plasma [psilocin]” value ([2]; Regimen 4, mini-pump chronic, improvement in attention in 10 s ITI 5-choice test)?
Answer: Its value is ~10 ng/mL.

Question: And the “actual plasma concentration of psilocin” value ([2]; psilocybin minipump 5 mg/kg/day, over the 12 day study period, rats)?
Answer: Its value is 9.3 ± 1.3 ng/mL.

Question: What about the Psilocin blood levels ([2]; psilocybin minipump, days 4-12, rats) of the same compound?
Answer: The Psilocin blood levels was 8 to 10 ng/mL.
